Assay results published in patent publication US20040268437A1, “Method for biosynthesizing the serotonin derivatives in plants” (CHONNAM NATIONAL UNIVERSITY, priority 2003, published 2004).

Legend:
[1] = system: transgenic rice plants (T14) over-expressing THT; test: Soil treatment of transgenic rice T14 with inducers; serotonin derivative content in seeds; type: in vivo; conditions: for Content of serotonin derivative: Coumaroyl serotonin / Content of serotonin derivative: Feruloyl serotonin / Content of serotonin derivative: Total content: seeds of transgenic rice T14, inducer 100 μM to soil, 300,000 L/ha, 20 days
Experimental: Among T2 generations of transgenic rice plants, T14 was transplanted in the soil, to which inducers for serotonin derivative biosynthesis were treated. After cultivation, the contents of serotonin derivatives in seeds of the transgenic rice plants were investigated.
As inducers for serotonin derivative biosynthesis, tyramine, tryptamine, cinnamic acid, coumaric acid, caffeic acid and ferulic acid were used. Precisely, the inducers for serotonin derivative biosynthesis were dissolved in water, making each concentration 100 μM. Then, the solutions were added at the rate of 300,000 L/ha, to the soil where rice plants (about 40 days after heading) were growing. The plants were cultivated for 20 more days.
The seeds of the plants cultivated above were collected, and the content of serotonin derivatives in them was investigated with the same method as used in the Example <1-1>, which was compared with that in seeds of wild type control rice plants.

[2] = system: Hot pepper (Variety: Pungcheon); test: Soil treatment of hot pepper with inducers; serotonin derivative content in sarcocarps by HPLC; type: in vivo; conditions: for Content of serotonin derivatives: Coumaroyl Serotonin / Content of serotonin derivatives: Feruloyl serotonin / Content of serotonin derivatives: Total content: inducer 100 μM to soil, 300,000 L/ha, 20 days; for Rank of inducers by serotonin derivatives produced: in words
Experimental: Hot pepper (Variety: Pungcheon) was treated with inducers for serotonin derivative biosynthesis, followed by an examination of biosynthesis of serotonin derivatives.
(§1) Particularly, inducers for serotonin derivative biosynthesis were prepared by dissolving tyramine, tryptamine, cinnamic acid, coumaric acid, caffeic acid and ferulic acid in water respectively to make each concentration 100 μM. And then the soil where rice plants (about 40 days after heading) had been growing was treated once with each inducer for serotonin derivative biosynthesis at the rate of 300,000 L/ha, followed by further cultivation for 20 days.
The ripe sarcocarps of hot peppers were obtained to investigate the content of serotonin derivatives by the same method as used in the above Example <1-1>. Control group hot pepper was cultivated under the same condition as the experimental group hot pepper except the treatment with inducers for serotonin derivative biosynthesis.

[3] = system: Rice plants (Variety: Nakdong); test: Soil treatment of rice with inducers; serotonin derivative content in seeds by HPLC; type: in vivo; conditions: for Content of serotonin derivatives: Coumaroyl Serotonin / Content of serotonin derivatives: Feruloyl serotonin / Content of serotonin derivatives: Total content: inducer 100 μM to soil, 300,000 L/ha, 20 days; for Rank of inducers by serotonin derivatives produced: in words
Experimental: Rice plants (Variety: Nakdong) having been cultivated in the rice field were treated with inducers for serotonin derivative biosynthesis and then biosynthesis of the serotonin derivatives was investigated.
as §1, with “Inducers for serotonin” for “Particularly, inducers for serotonin”, “ferulic acid (Sigma-Aldrich, Korea) in water” for “ferulic acid in water”
As a control group, rice plant which had been cultivated under the same conditions except the treatment with inducers for serotonin derivative biosynthesis was used.
After harvesting rice, seeds of the rice were peeled to obtain brown rice. N-(hydroxycinnamoyl)-amines were extracted from 1 g of the brown rice by known method (Ishihara et al., Biosci. Biotechnol. Biochem. 64, 1025-1031, 2000), and then, HPLC was performed.
Coumaroylserotonin and feruloylserotonin included in the extract of seeds of rice, treated with inducers for serotonin derivative biosynthesis, were quantified by HPLC using a standard substance synthesized by a well-known method (Villegas & Brodelius, Physiol. Plant. 78, 414-420, 1990).

[4] = system: potato THT; conditions: cited from earlier work
[5] = system: transgenic control rice; test: Transgenic control rice (pGA1611 vector without THT gene) grown in medium with tyramine; content in leaves and stems; type: in vivo; conditions: Transgenic control (TC); medium with 50 μM tyramine, 2 weeks
Experimental: In the meantime, transgenic control rice was prepared by transfecting rice plant with pGA1611 vector without hot pepper THT gene, and other preparation procedures for a control were the same as for an experimental group.
(§2) It was investigated whether serotonin derivatives was biosynthesized in transgenic rice plants over-expressing THT when cultivated in a medium supplemented with serotonin inducers, tyramine or coumaric acid. T2 generations of the transgenic rice seeds were sown on MS medium (Duchefa Biochemie, Netherlands) supplemented with 50 μM of tyramine or coumaric acid, substrates of hot pepper THT enzyme, which were then further cultured in a sterilized condition with 12 hour light and 12 hour dark cycle. 2 weeks later, hydroxycinnamoyl amines were extracted from leaves of T2 generations of transgenic rice plants and wild type control rice plants, respectively, according to the same procedure as used in the above Example <1-1>, then, HPLC was performed for analysis.

[6] = system: recombinant hot pepper THT; conditions: amine substrates; cited from earlier work
[7] = system: transgenic rice plants over-expressing THT; test: Transgenic rice grown in medium with tyramine or coumaric acid; content in leaves and stems; type: in vivo; conditions: for Coumaroyl serotonin / Feruloyl serotonin / Total content of serotonin derivatives: medium with 50 μM tyramine, 2 weeks
[8] = system: wild type control rice plants; test: Wild-type control rice grown in medium with tyramine; content in leaves and stems; type: in vivo; conditions: Wild-type control (W); medium with 50 μM tyramine, 2 weeks
Experimental: as §2

[9] = Mean of transgenic rice lines T9-T17

O=C(O)/C=C/c1ccc(O)c(O)c1 [Caffeic acid, caffeic acid]
Content of serotonin derivative: Coumaroyl serotonin [1]: 368 ng/g seeds | Content of serotonin derivative: Feruloyl serotonin [1]: 430 ng/g seeds | Content of serotonin derivative: Total content [1]: 798 ng/g seeds | Content of serotonin derivatives: Coumaroyl Serotonin [2]: 138 ng/1 g sarcocarps | Content of serotonin derivatives: Feruloyl serotonin [2]: 162 ng/1 g sarcocarps | Content of serotonin derivatives: Total content [2]: 300 ng/1 g sarcocarps | Content of serotonin derivatives: Coumaroyl Serotonin [3]: 20 ng/1 g seed | Content of serotonin derivatives: Feruloyl serotonin [3]: 23 ng/1 g seed | Content of serotonin derivatives: Total content [3]: 43 ng/1 g seed

O=C(O)C=Cc1ccccc1 [Cinnamic acid, cinnamic acid]
Content of serotonin derivative: Coumaroyl serotonin [1]: 403 ng/g seeds | Content of serotonin derivative: Feruloyl serotonin [1]: 406 ng/g seeds | Content of serotonin derivative: Total content [1]: 809 ng/g seeds | Rank of inducers by serotonin derivatives produced [2]: produced most | Content of serotonin derivatives: Coumaroyl Serotonin [2]: 214 ng/1 g sarcocarps | Content of serotonin derivatives: Feruloyl serotonin [2]: 276 ng/1 g sarcocarps | Content of serotonin derivatives: Total content [2]: 490 ng/1 g sarcocarps | Rank of inducers by serotonin derivatives produced [3]: produced most | Content of serotonin derivatives: Coumaroyl Serotonin [3]: 48 ng/1 g seed | Content of serotonin derivatives: Feruloyl serotonin [3]: 76 ng/1 g seed | Content of serotonin derivatives: Total content [3]: 124 ng/1 g seed

O=C(O)/C=C/c1ccc(O)cc1 [Coumaric acid, coumaric acid]
Content of serotonin derivative: Coumaroyl serotonin [1]: 325 ng/g seeds | Content of serotonin derivative: Feruloyl serotonin [1]: 599 ng/g seeds | Content of serotonin derivative: Total content [1]: 924 ng/g seeds | Content of serotonin derivatives: Coumaroyl Serotonin [2]: 120 ng/1 g sarcocarps | Content of serotonin derivatives: Feruloyl serotonin [2]: 170 ng/1 g sarcocarps | Content of serotonin derivatives: Total content [2]: 290 ng/1 g sarcocarps | Content of serotonin derivatives: Coumaroyl Serotonin [3]: 15 ng/1 g seed | Content of serotonin derivatives: Feruloyl serotonin [3]: 21 ng/1 g seed | Content of serotonin derivatives: Total content [3]: 36 ng/1 g seed

COc1cc(/C=C/C(=O)O)ccc1O [Ferulic acid, ferulic acid]
Content of serotonin derivative: Coumaroyl serotonin [1]: 313 ng/g seeds | Content of serotonin derivative: Feruloyl serotonin [1]: 537 ng/g seeds | Content of serotonin derivative: Total content [1]: 850 ng/g seeds | Rank of inducers by serotonin derivatives produced [2]: second most | Content of serotonin derivatives: Coumaroyl Serotonin [2]: 145 ng/1 g sarcocarps | Content of serotonin derivatives: Feruloyl serotonin [2]: 230 ng/1 g sarcocarps | Content of serotonin derivatives: Total content [2]: 375 ng/1 g sarcocarps | Rank of inducers by serotonin derivatives produced [3]: third most | Content of serotonin derivatives: Coumaroyl Serotonin [3]: 33 ng/1 g seed | Content of serotonin derivatives: Feruloyl serotonin [3]: 37 ng/1 g seed | Content of serotonin derivatives: Total content [3]: 70 ng/1 g seed

NCCc1c[nH]c2ccccc12 [Tryptamine, tryptamine]
Use as amine substrate ([4]; potato THT): not used as a substrate | Content of serotonin derivative: Coumaroyl serotonin [1]: 376 ng/g seeds | Content of serotonin derivative: Feruloyl serotonin [1]: 382 ng/g seeds | Content of serotonin derivative: Total content [1]: 758 ng/g seeds | Content of serotonin derivatives: Coumaroyl Serotonin [2]: 61 ng/1 g sarcocarps | Content of serotonin derivatives: Feruloyl serotonin [2]: 79 ng/1 g sarcocarps | Content of serotonin derivatives: Total content [2]: 140 ng/1 g sarcocarps | Content of serotonin derivatives: Coumaroyl Serotonin [3]: 20 ng/1 g seed | Content of serotonin derivatives: Feruloyl serotonin [3]: 28 ng/1 g seed | Content of serotonin derivatives: Total content [3]: 48 ng/1 g seed

NCCc1ccc(O)cc1 [Tyramine, tyramine]
Coumaroyl serotonin [5]: 0 μg/g leaves and stems | Feruloyl serotonin [5]: 1 μg/g leaves and stems | Total content of serotonin derivatives [5]: 1 μg/g leaves and stems | Increase of substrate specificity to tyramine ([4]; coumaroyl-CoA used as a substrate instead of feruloyl-CoA): more than 10 times | Content of serotonin derivative: Coumaroyl serotonin [1]: 314 ng/g seeds | Content of serotonin derivative: Feruloyl serotonin [1]: 684 ng/g seeds | Content of serotonin derivative: Total content [1]: 998 ng/g seeds | Rank of inducers by content of serotonin derivatives ([1]; seeds of transgenic rice plants, in words): the highest | Maximum reaction velocity (Vmax) relative to octopamine [6]: 1.5 fold | Rank of inducers by serotonin derivatives produced [2]: third most | Content of serotonin derivatives: Coumaroyl Serotonin [2]: 150 ng/1 g sarcocarps | Content of serotonin derivatives: Feruloyl serotonin [2]: 210 ng/1 g sarcocarps | Content of serotonin derivatives: Total content [2]: 360 ng/1 g sarcocarps | Coumaroyl serotonin [7, 9]: 78 μg/g leaves and stems | Feruloyl serotonin [7, 9]: 96 μg/g leaves and stems | Total content of serotonin derivatives [7, 9]: 174 μg/g leaves and stems | Coumaroyl serotonin ([7]; Transgenic rice T9): 24 μg/g leaves and stems | Feruloyl serotonin ([7]; Transgenic rice T9): 24 μg/g leaves and stems | Total content of serotonin derivatives ([7]; Transgenic rice T9): 48 μg/g leaves and stems | Coumaroyl serotonin ([7]; Transgenic rice T10): 86 μg/g leaves and stems | Feruloyl serotonin ([7]; Transgenic rice T10): 114 μg/g leaves and stems | Total content of serotonin derivatives ([7]; Transgenic rice T10): 200 μg/g leaves and stems | Coumaroyl serotonin ([7]; Transgenic rice T13): 224 μg/g leaves and stems | Feruloyl serotonin ([7]; Transgenic rice T13): 200 μg/g leaves and stems | Total content of serotonin derivatives ([7]; Transgenic rice T13): 424 μg/g leaves and stems | Coumaroyl serotonin ([7]; Transgenic rice T14): 46 μg/g leaves and stems | Feruloyl serotonin ([7]; Transgenic rice T14): 78 μg/g leaves and stems | Total content of serotonin derivatives ([7]; Transgenic rice T14): 124 μg/g leaves and stems | Coumaroyl serotonin ([7]; Transgenic rice T16): 50 μg/g leaves and stems | Feruloyl serotonin ([7]; Transgenic rice T16): 70 μg/g leaves and stems | Total content of serotonin derivatives ([7]; Transgenic rice T16): 120 μg/g leaves and stems | Coumaroyl serotonin ([7]; Transgenic rice T17): 36 μg/g leaves and stems | Feruloyl serotonin ([7]; Transgenic rice T17): 92 μg/g leaves and stems | Total content of serotonin derivatives ([7]; Transgenic rice T17): 128 μg/g leaves and stems | Coumaroyltyramine and feruloyltyramine in the extract ([7]; transgenic rice in medium with 50 μM tyramine or coumaric acid, HPLC): neither coumaroyltyramine nor feruloyltyramine | Rank of inducers by serotonin derivatives produced [3]: second most | Content of serotonin derivatives: Coumaroyl Serotonin [3]: 19 ng/1 g seed | Content of serotonin derivatives: Feruloyl serotonin [3]: 54 ng/1 g seed | Content of serotonin derivatives: Total content [3]: 73 ng/1 g seed | Coumaroyl serotonin [8]: 0 μg/g leaves and stems | Feruloyl serotonin [8]: 1 μg/g leaves and stems | Total content of serotonin derivatives [8]: 1 μg/g leaves and stems
